US7745139B1, “Peptides of the AT1 receptor and their uses” (Max-Delbrück-Centrum für Molekulare Medizin, priority 1998, dated 2010)
Entries after “also recorded” stand apart in the source; their conditions may differ.

Key:
AT1 receptor = molecular target: T1, AT1 receptor (Rattus norvegicus, UniProt P25095); experiment: Bioassay: beat frequency of spontaneously pulsing cultivated neo-natal rat heart cells (cardiomyocytes); type: cell-based; conditions: for Influence on the positively chronotropic effect of angiotensin II: cells stimulated with angiotensin II; for Influence of receptor blockers on the positively chronotropic effect of the auto-antibodies: cells stimulated with anti-AT1 receptor auto-antibody
T1 construct: endogenous in cells; host or cells: primary culture of spontaneously pulsing neonatal rat cardiomyocytes
T1 sequence (P25095 1-359): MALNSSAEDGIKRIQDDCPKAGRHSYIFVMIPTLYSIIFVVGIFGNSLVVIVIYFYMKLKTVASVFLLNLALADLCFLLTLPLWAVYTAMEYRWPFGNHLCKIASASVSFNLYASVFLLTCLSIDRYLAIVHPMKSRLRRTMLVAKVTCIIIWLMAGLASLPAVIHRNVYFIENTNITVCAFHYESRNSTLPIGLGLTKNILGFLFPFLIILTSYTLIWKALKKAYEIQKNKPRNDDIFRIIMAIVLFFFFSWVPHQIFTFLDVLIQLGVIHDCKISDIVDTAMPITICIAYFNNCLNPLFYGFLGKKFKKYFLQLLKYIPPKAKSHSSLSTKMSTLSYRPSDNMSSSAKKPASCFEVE
Excerpt: The bio-assay entails • spontaneously pulsing neo-natal cardiomyocytes in primary culture or • cardiomyocytes differentiated from undifferentiated embryonal stem cells • in one culture medium
(§1) Cultivated neo-natal rat heart cells were used as a bioassay.
To identify and characterise the AT1 receptor antibodies, a sensitive bioassay was used. […] In order to identify the epitopes of the auto-antibodies on the second extra-cellular loops of the angiotensin II AT1 receptor, an attempt was made to neutralise the anti-AT1 receptor auto-antibodies with short overlapping peptides. […] I.

[1] = test system: anti-AT1 receptor auto-antibodies; experiment: Neutralisation of patients' antibodies by pre-treatment with AT1 receptor peptides, read out in the cardiomyocyte bioassay; type: cell-based, human; conditions: for Patients' antibodies, pre-treated with peptide (beat frequency bioassay): antibody 1:40 + peptide; for Annulment of the effect of the antibody by epitope peptides: antibodies of hypertension sufferers; for Neutralisation/inhibition of the agonistic effect of the auto-antibodies on the cells: antibodies of preeclampsia patients
Excerpt: as §1
To identify and characterise the AT1 receptor antibodies, a sensitive bioassay was used. […] Further, this agonistic effect was neutralised by a peptide corresponding to the second extra-cellular loop of the AT1 receptor. In order to identify the epitopes of the auto-antibodies on the second extra-cellular loops of the angiotensin II AT1 receptor, an attempt was made to neutralise the anti-AT1 receptor auto-antibodies with short overlapping peptides. […] These were the epitopes ENTNIT and AFHYESQ. In preeclampsia patients, the agonistic effect of the antibodies achieved via the AT1 receptor was only neutralised by the peptide AFHYESQ. This epitope has a special importance in this disease, as it was identified in all the patients examined. […] I.

Molecule | Patients' antibodies, pre-treated with peptide (beat frequency bioassay) ([1]; Patient No. 1) | Patients' antibodies, pre-treated with peptide (beat frequency bioassay) ([1]; Patient No. 2) | Neutralisation/inhibition of the agonistic effect of the auto-antibodies on the cells [1] | further results
CCCCc1nc(Cl)c(CO)n1Cc1ccc(-c2ccccc2-c2nn[nH]n2)cc1 [Losartan] | – | – | – | Influence on the positively chronotropic effect of angiotensin II (AT1 receptor): blocked; Influence on the positively chronotropic effect of angiotensin II (AT1 receptor; listed as Losastan): inhibited; Influence of receptor blockers on the positively chronotropic effect of the auto-antibodies (AT1 receptor): stopped; Influence of receptor blockers on the positively chronotropic effect of the auto-antibodies (AT1 receptor; listed as Losastan): inhibited
Cc1cc(Cn2cnc3c2C[C@@H](C(=O)O)N(C(=O)C(c2ccccc2)c2ccccc2)C3)ccc1N(C)C [PD 123319] | – | – | – | Influence of receptor blockers on the positively chronotropic effect of the auto-antibodies (AT1 receptor): no influence
AFHYESQ | 1.2 ± 0.84 | 1.6 ± 1.24 | inhibits the effect; also recorded: neutralised | Annulment of the effect of the antibody by epitope peptides [1]: annul the effect of the antibody
ENTNIT | – | – | – | Annulment of the effect of the antibody by epitope peptides [1]: annul the effect of the antibody
GYYFDTN [function-analog peptide] | 2.4 ± 0.72 | 2.8 ± 1.20 | neutralise the antibodies | –
SHFYQTR [function-analog peptide] | 0.8 ± 1.16 | 0.8 ± 0.80 | neutralise the antibodies | –
angiotensin II [angiotensin-II] | – | – | – | Chronotropic effect on cardiomyocytes (beat frequency / pulsation rate) (AT1 receptor; agonist alone): increase of the beat frequency
loop II peptides: peptides portraying the part of the AT1 receptor corresponding to loop II (IHRNVFFIENTNITVCAFHYESQNSTL) | – | – | inhibit the antibody effect | Neutralisation/inhibition of the agonistic effect of the auto-antibodies on the cells ([1]; listed as peptide corresponding to the second extra-cellular loop of the AT1 receptor): neutralised
